Data reported in ChEMBL document CHEMBL1250443, “Microarray-based method for monitoring yeast overexpression strains reveals small-molecule targets in TOR pathway” (Nat Chem Biol, 2006).

What was measured:
[1] = Inhibition of TOR signaling in wild-type Saccharomyces cerevisiae transformed with overexpression plasmids assessed as increased NAM7 gene expression by microarray
[2] = Inhibition of TOR signaling in wild-type Saccharomyces cerevisiae transformed with overexpression plasmids assessed as increased IML2 gene expression by microarray
[3] = Inhibition of TOR signaling in wild-type Saccharomyces cerevisiae transformed with overexpression plasmids assessed as decreased YDL186W gene expression by microarray
[4] = Inhibition of TOR signaling in wild-type Saccharomyces cerevisiae transformed with overexpression plasmids assessed as increased YDL063C gene expression by microarray
[5] = Inhibition of TOR signaling in wild-type Saccharomyces cerevisiae transformed with overexpression plasmids assessed as increased YEL070W gene expression by microarray
[6] = Inhibition of TOR signaling in wild-type Saccharomyces cerevisiae transformed with overexpression plasmids assessed as increased CDC5 gene expression by microarray
[7] = Inhibition of TOR signaling in wild-type Saccharomyces cerevisiae transformed with overexpression plasmids assessed as increased SSH1 gene expression by microarray
[8] = Inhibition of TOR signaling in wild-type Saccharomyces cerevisiae transformed with overexpression plasmids assessed as increased NCL1 gene expression by microarray
[9] = Inhibition of TOR signaling in wild-type Saccharomyces cerevisiae transformed with overexpression plasmids assessed as increased NOG1 gene expression by microarray
[10] = Inhibition of TOR signaling in wild-type Saccharomyces cerevisiae transformed with overexpression plasmids assessed as decreased FUS3 gene expression by microarray
[11] = Inhibition of TOR signaling in wild-type Saccharomyces cerevisiae transformed with overexpression plasmids assessed as increased LIN1 gene expression by microarray
[12] = Inhibition of TOR signaling in wild-type Saccharomyces cerevisiae transformed with overexpression plasmids assessed as decreased PTC4 gene expression by microarray
[13] = Inhibition of TOR signaling in wild-type Saccharomyces cerevisiae transformed with overexpression plasmids assessed as decreased YKL059C gene expression by microarray
[14] = Inhibition of TOR signaling in wild-type Saccharomyces cerevisiae transformed with overexpression plasmids assessed as increased SRP72 gene expression by microarray
[15] = Inhibition of TOR signaling in wild-type Saccharomyces cerevisiae transformed with overexpression plasmids assessed as increased STM1 gene expression by microarray
[16] = Inhibition of TOR signaling in wild-type Saccharomyces cerevisiae transformed with overexpression plasmids assessed as decreased YPL264C gene expression by microarray
[17] = Inhibition of TOR signaling in wild-type Saccharomyces cerevisiae transformed with overexpression plasmids assessed as increased UTP8 gene expression by microarray
[18] = Inhibition of TOR signaling in wild-type Saccharomyces cerevisiae transformed with overexpression plasmids assessed as increased NOP7 gene expression by microarray
[19] = Inhibition of TOR signaling in wild-type Saccharomyces cerevisiae transformed with overexpression plasmids assessed as decreased GIP3 gene expression by microarray
[20] = Inhibition of TOR signaling in wild-type Saccharomyces cerevisiae transformed with overexpression plasmids assessed as increased RTT106 gene expression by microarray
[21] = Inhibition of TOR signaling in wild-type Saccharomyces cerevisiae transformed with overexpression plasmids assessed as decreased SUT2 gene expression by microarray
[22] = Inhibition of TOR signaling in wild-type Saccharomyces cerevisiae transformed with overexpression plasmids assessed as increased HSP104 gene expression by microarray
[23] = Inhibition of TOR signaling in wild-type Saccharomyces cerevisiae transformed with overexpression plasmids assessed as increased ALD6 gene expression by microarray
[24] = Inhibition of TOR signaling in wild-type Saccharomyces cerevisiae transformed with overexpression plasmids assessed as increased YCL049C gene expression by microarray
[25] = Inhibition of TOR signaling in wild-type Saccharomyces cerevisiae transformed with overexpression plasmids assessed as increased YLR346C gene expression by microarray
[26] = Inhibition of TOR signaling in wild-type Saccharomyces cerevisiae transformed with overexpression plasmids assessed as decreased REH1 gene expression by microarray
[27] = Inhibition of TOR signaling in wild-type Saccharomyces cerevisiae transformed with overexpression plasmids assessed as increased YLR297W gene expression by microarray
[28] = Inhibition of TOR signaling in wild-type Saccharomyces cerevisiae transformed with overexpression plasmids assessed as decreased AZR1 gene expression by microarray
[29] = Inhibition of TOR signaling in wild-type Saccharomyces cerevisiae transformed with overexpression plasmids assessed as decreased RTT101 gene expression by microarray
[30] = Inhibition of TOR signaling in wild-type Saccharomyces cerevisiae transformed with overexpression plasmids assessed as decreased OLE1 gene expression by microarray
[31] = Inhibition of TOR signaling in wild-type Saccharomyces cerevisiae transformed with overexpression plasmids assessed as increased VID22 gene expression by microarray
[32] = Inhibition of TOR signaling in wild-type Saccharomyces cerevisiae transformed with overexpression plasmids assessed as increased CDC54 gene expression by microarray
[33] = Inhibition of TOR signaling in wild-type Saccharomyces cerevisiae transformed with overexpression plasmids assessed as decreased CAJ1 gene expression by microarray
[34] = Inhibition of TOR signaling in wild-type Saccharomyces cerevisiae transformed with overexpression plasmids assessed as decreased HES1 gene expression by microarray
[35] = Inhibition of TOR signaling in wild-type Saccharomyces cerevisiae transformed with overexpression plasmids assessed as decreased SUE1 gene expression by microarray
[36] = Inhibition of TOR signaling in wild-type Saccharomyces cerevisiae transformed with overexpression plasmids assessed as increased URA5 gene expression by microarray
[37] = Inhibition of TOR signaling in wild-type Saccharomyces cerevisiae transformed with overexpression plasmids assessed as increased ZDS2 gene expression by microarray
[38] = Inhibition of TOR signaling in wild-type Saccharomyces cerevisiae transformed with overexpression plasmids assessed as increased DSL1 gene expression by microarray
[39] = Inhibition of TOR signaling in wild-type Saccharomyces cerevisiae transformed with overexpression plasmids assessed as decreased PUT4 gene expression by microarray
[40] = Inhibition of TOR signaling in wild-type Saccharomyces cerevisiae transformed with overexpression plasmids assessed as decreased HPA2 gene expression by microarray
[41] = Inhibition of TOR signaling in wild-type Saccharomyces cerevisiae transformed with overexpression plasmids assessed as increased HCA4 gene expression by microarray
[42] = Inhibition of TOR signaling in wild-type Saccharomyces cerevisiae transformed with overexpression plasmids assessed as decreased HOL1 gene expression by microarray
[43] = Inhibition of TOR signaling in wild-type Saccharomyces cerevisiae transformed with overexpression plasmids assessed as decreased ELP2 gene expression by microarray
[44] = Inhibition of TOR signaling in wild-type Saccharomyces cerevisiae transformed with overexpression plasmids assessed as decreased HSD1 gene expression by microarray

Q: With `CO[C@H]1C[C@@H]2CC[C@@H](C)[C@@](O)(O2)C(=O)C(=O)N2CCCC[C@H]2C(=O)O[C@H]([C@H](C)C[C@@H]2CC[C@@H](O)[C@H](OC)C2)CC(=O)[C@H](C)/C=C(\C)[C@@H](O)[C@@H](OC)C(=O)[C@H](C)C[C@H](C)/C=C/C=C/C=C/1C` [SIROLIMUS] as the molecule, how does the fold change (FC) [1] read?
A: 6.4

Q: And the fold change (FC) [2]?
A: 24.4

Q: And the fold change (FC) [3]?
A: -3.3

Q: What about the fold change (FC) [4] of the same molecule?
A: 2.5

Q: And the fold change (FC) [5]?
A: 3

Q: What about the fold change (FC) [6] of the same molecule?
A: 3.4

Q: What about the fold change (FC) [7] of the same molecule?
A: 2.3

Q: And the fold change (FC) [8]?
A: 7.4

Q: And the fold change (FC) [9]?
A: 2.9

Q: What about the fold change (FC) [10] of the same molecule?
A: -3.2

Q: And the fold change (FC) [11]?
A: 2.5

Q: And the fold change (FC) [12]?
A: -4

Q: And the fold change (FC) [13]?
A: -2.3

Q: And the fold change (FC) [14]?
A: 3.4

Q: What about the fold change (FC) [15] of the same molecule?
A: 5.7

Q: What about the fold change (FC) [16] of the same molecule?
A: -3.2

Q: What about the fold change (FC) [17] of the same molecule?
A: 2.6

Q: What about the fold change (FC) [18] of the same molecule?
A: 2.4

Q: And the fold change (FC) [19]?
A: -2.3

Q: What about the fold change (FC) [20] of the same molecule?
A: 8.3

Q: What about the fold change (FC) [21] of the same molecule?
A: -3.8

Q: What about the fold change (FC) [22] of the same molecule?
A: 6.3

Q: What about the fold change (FC) [23] of the same molecule?
A: 3

Q: What about the fold change (FC) [24] of the same molecule?
A: 2.1

Q: What about the fold change (FC) [25] of the same molecule?
A: 2.7

Q: What about the fold change (FC) [26] of the same molecule?
A: -2.2

Q: And the fold change (FC) [27]?
A: 3.6

Q: What about the fold change (FC) [28] of the same molecule?
A: -3.1

Q: What about the fold change (FC) [29] of the same molecule?
A: -3.3

Q: What about the fold change (FC) [30] of the same molecule?
A: -3.2

Q: What about the fold change (FC) [31] of the same molecule?
A: 2.3

Q: What about the fold change (FC) [32] of the same molecule?
A: 4.5

Q: What about the fold change (FC) [33] of the same molecule?
A: -5.6

Q: And the fold change (FC) [34]?
A: -3.1

Q: What about the fold change (FC) [35] of the same molecule?
A: -2

Q: And the fold change (FC) [36]?
A: 2.2

Q: And the fold change (FC) [37]?
A: 13.6

Q: And the fold change (FC) [38]?
A: 2.4

Q: And the fold change (FC) [39]?
A: -3.1

Q: What about the fold change (FC) [40] of the same molecule?
A: -2.1

Q: What about the fold change (FC) [41] of the same molecule?
A: 2.9

Q: And the fold change (FC) [42]?
A: -4.5

Q: What about the fold change (FC) [43] of the same molecule?
A: -8.1

Q: What about the fold change (FC) [44] of the same molecule?
A: -4.5
